# Experimental data reported in ChEMBL document CHEMBL3044623, “Feeding cessation effects of chlorantraniliprole, a new anthranilic diamide insecticide, in comparison with several insecticides in distinct chemical classes and mode-of-action groups” (2009).
# Tests used:
# Format in all cases: functional
# [1] = test system: Trichoplusia ni; test: Antifeedant activity against third-instar larval stage of Trichoplusia ni (cabbage looper) infested compound-treated leaf assessed as reduction in feeding damage at 187 mg a.i/L after 48 hr by leaf disk assay relative to untreated control; set-up: scale not given: the % may be the effect or the level left
# [2] = test system: Trichoplusia ni; test: Antifeedant activity against third-instar larval stage of Trichoplusia ni (cabbage looper) infested compound-treated leaf assessed as time required to stop feeding at 187 mg a.i/L after 48 hr by leaf disk assay (reference value: > 2880 min)
# [3] = test system: Spodoptera exigua; test: Antifeedant activity against third-instar larval stage of Spodoptera exigua infested compound-treated leaf assessed as time required to stop feeding at 187 mg a.i/L after 48 hr by leaf disk assay (reference value: > 2880 min)
# [4] = test system: Spodoptera exigua; test: Antifeedant activity against third-instar larval stage of Spodoptera exigua infested compound-treated leaf assessed as reduction in feeding damage at 187 mg a.i/L after 48 hr by leaf disk assay relative to untreated control; set-up: scale not given: the % may be the effect or the level left
# [5] = test system: Helicoverpa zea; test: Antifeedant activity against third-instar larval stage of Helicoverpa zea (corn earworm) infested compound-treated leaf assessed as time required to stop feeding at 187 mg a.i/L after 48 hr by leaf disk assay (reference value: > 2880 min)
# [6] = test system: Helicoverpa zea; test: Antifeedant activity against third-instar larval stage of Helicoverpa zea (corn earworm) infested compound-treated leaf assessed as reduction in feeding damage at 187 mg a.i/L after 48 hr by leaf disk assay relative to untreated control; set-up: scale not given: the % may be the effect or the level left
# [7] = test system: Trichoplusia ni; test: Antifeedant activity against third-instar larval stage of Trichoplusia ni (cabbage looper) infested compound-treated leaf assessed as reduction in feeding damage at 167 mg a.i/L after 48 hr by leaf disk assay relative to untreated control; set-up: scale not given: the % may be the effect or the level left
# [8] = test system: Plutella xylostella; test: Antifeedant activity against third-instar larval stage of Plutella xylostella (diamondback moth) infested compound-treated leaf assessed as reduction in feeding damage at 167 mg a.i/L after 48 hr by leaf disk assay relative to untreated control; set-up: scale not given: the % may be the effect or the level left
# [9] = test system: Plutella xylostella; test: Antifeedant activity against third-instar larval stage of Plutella xylostella (diamondback moth) infested compound-treated leaf assessed as time required to stop feeding at 167 mg a.i/L after 48 hr by leaf disk assay (reference value: > 2880 min)
# [10] = test system: Trichoplusia ni; test: Antifeedant activity against third-instar larval stage of Trichoplusia ni (cabbage looper) infested compound-treated leaf assessed as time required to stop feeding at 167 mg a.i/L after 48 hr by leaf disk assay (reference value: > 2880 min)
# [11] = test system: Spodoptera exigua; test: Antifeedant activity against third-instar larval stage of Spodoptera exigua infested compound-treated leaf assessed as time required to stop feeding at 167 mg a.i/L after 48 hr by leaf disk assay (reference value: > 2880 min)
# [12] = test system: Spodoptera exigua; test: Antifeedant activity against third-instar larval stage of Spodoptera exigua infested compound-treated leaf assessed as reduction in feeding damage at 167 mg a.i/L after 48 hr by leaf disk assay relative to untreated control; set-up: scale not given: the % may be the effect or the level left
# [13] = test system: Helicoverpa zea; test: Antifeedant activity against third-instar larval stage of Helicoverpa zea (corn earworm) infested compound-treated leaf assessed as reduction in feeding damage at 167 mg a.i/L after 48 hr by leaf disk assay relative to untreated control; set-up: scale not given: the % may be the effect or the level left
# [14] = test system: Helicoverpa zea; test: Antifeedant activity against third-instar larval stage of Helicoverpa zea (corn earworm) infested compound-treated leaf assessed as time required to stop feeding at 167 mg a.i/L after 48 hr by leaf disk assay (reference value: > 2880 min)
# [15] = test system: Trichoplusia ni; test: Antifeedant activity against third-instar larval stage of Trichoplusia ni (cabbage looper) infested compound-treated leaf assessed as reduction in feeding damage at 40 mg a.i/L after 48 hr by leaf disk assay relative to untreated control; set-up: scale not given: the % may be the effect or the level left
# [16] = test system: Plutella xylostella; test: Antifeedant activity against third-instar larval stage of Plutella xylostella (diamondback moth) infested compound-treated leaf assessed as reduction in feeding damage at 40 mg a.i/L after 48 hr by leaf disk assay relative to untreated control; set-up: scale not given: the % may be the effect or the level left
# [17] = test system: Plutella xylostella; test: Antifeedant activity against third-instar larval stage of Plutella xylostella (diamondback moth) infested compound-treated leaf assessed as time required to stop feeding at 40 mg a.i/L after 48 hr by leaf disk assay (reference value: > 2880 min)
# [18] = test system: Helicoverpa zea; test: Antifeedant activity against third-instar larval stage of Helicoverpa zea (corn earworm) infested compound-treated leaf assessed as reduction in feeding damage at 40 mg a.i/L after 48 hr by leaf disk assay relative to untreated control; set-up: scale not given: the % may be the effect or the level left
# [19] = test system: Trichoplusia ni; test: Antifeedant activity against third-instar larval stage of Trichoplusia ni (cabbage looper) infested compound-treated leaf assessed as time required to stop feeding at 40 mg a.i/L after 48 hr by leaf disk assay (reference value: > 2880 min)
# [20] = test system: Spodoptera exigua; test: Antifeedant activity against third-instar larval stage of Spodoptera exigua infested compound-treated leaf assessed as time required to stop feeding at 40 mg a.i/L after 48 hr by leaf disk assay (reference value: > 2880 min)
# [21] = test system: Spodoptera exigua; test: Antifeedant activity against third-instar larval stage of Spodoptera exigua infested compound-treated leaf assessed as reduction in feeding damage at 40 mg a.i/L after 48 hr by leaf disk assay relative to untreated control; set-up: scale not given: the % may be the effect or the level left
# [22] = test system: Helicoverpa zea; test: Antifeedant activity against third-instar larval stage of Helicoverpa zea (corn earworm) infested compound-treated leaf assessed as time required to stop feeding at 40 mg a.i/L after 48 hr by leaf disk assay (reference value: > 2880 min)
compound,measurement,setting,value
CC(C)[C@H](C(=O)O[C@H](C#N)c1cccc(Oc2ccccc2)c1)c1ccc(Cl)cc1,Activity,[1],99.9%
same,Time,[2],5 min
same,Time,[3],6.4 min
same,Activity,[4],99.9%
same,Time,[5],3.4 min
same,Activity,[6],99.9%
CNC(=O)c1cc(Cl)cc(C)c1NC(=O)c1cc(Br)nn1-c1ncccc1Cl [CHLORANTRANILIPROLE],Activity,[7],99.4%
same,Activity,[8],99.4%
same,Time,[9],15.4 min
same,Time,[10],23.4 min
same,Time,[11],25.3 min
same,Activity,[12],99%
same,Activity,[13],99.2%
same,Time,[14],20.3 min
CC[C@H](C)C1O[C@]2(C=C[C@@H]1C)C[C@@H]1C[C@@H](C/C=C(\C)[C@@H](O[C@H]3C[C@H](OC)[C@@H](O[C@H]4C[C@H](OC)[C@H](NC)[C@H](C)O4)[C@H](C)O3)[C@@H](C)/C=C/C=C3\CO[C@@H]4[C@H](O)C(C)=C[C@@H](C(=O)O1)[C@]34O)O2.O=C(O)c1ccccc1 (some centres not stated) [EMAMECTIN BENZOATE],Activity,[15],95.7%
same,Activity,[16],97.9%
same,Time,[17],55.9 min
same,Activity,[18],93.9%
same,Time,[19],91.9 min
same,Time,[20],139 min
same,Activity,[21],92.4%
same,Time,[22],151.8 min
